Data taken from PubChem BioAssay (NCI).
Several values for one entry are separate records, joined by “and”; a condition that tells them apart may be missing. Equal values may be shown once.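 Compound exposure: 48 hours, 5 concentrations, 96-well plates. GI50 is the concentration that inhibits growth by half. TGI: concentration producing complete growth inhibition.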

What follows are compounds tested on CAKI-1 renal (assay: NCI anticancer screen, dose series, 48 h).

Point of comparison: `COc1cc(/C=N/NC(=O)c2ccc(C(F)(F)F)nc2Nc2ccc(Cl)cc2C)ccc1O`, GI50 2.23 µM. Against it:
- COc1ccc(C(=O)Cn2c(C(=O)c3ccccc3)nc(-c3ccc(OC)cc3)c2-c2ccc(OC)cc2)cc1 — 24-fold higher, 52.7 µM
- CSc1nc2c(c(=O)[nH]1)N=C1c3ccccc3C(=O)C1C(c1ccccc1)N2 (stereo not drawn) — within 1.5-fold, 2.18 µM
- CC1=C(C(=O)Nc2ccc(Cl)c(Cl)c2)C(c2cccc(Oc3ccccc3)c2)NC(=S)N1 (stereo not drawn) — 3.8-fold higher, 8.48 µM

Point of comparison: `CC1=C(C(=O)Nc2ccc(Cl)c(Cl)c2)C(c2cccc(Oc3ccccc3)c2)NC(=S)N1` (stereo not drawn), TGI 15.4 µM. Against it:
- COc1cc(/C=N/NC(=O)c2ccc(C(F)(F)F)nc2Nc2ccc(Cl)cc2C)ccc1O — within 1.5-fold, 10.8 µM
- COc1ccc(C(=O)Cn2c(C(=O)c3ccccc3)nc(-c3ccc(OC)cc3)c2-c2ccc(OC)cc2)cc1 — higher, > 100 µM
- O=C1c2ccccc2C2C1N2C(=O)C(F)(F)F (stereo not drawn) — higher, > 100 µM
- N#CCCN(CCC#N)c1ccc(/C=C2\N=C(c3cc([N+](=O)[O-])ccc3Cl)OC2=O)cc1 — higher, > 100 µM
- CSc1nc2c(c(=O)[nH]1)N=C1c3ccccc3C(=O)C1C(c1ccccc1)N2 (stereo not drawn) — higher, > 100 µM
- CCOC(=O)[C@]1(OC(C)=O)C[C@H](OC(C)=O)[C@@H](C(F)COP(=O)(OCc2ccccc2)OCc2ccccc2)O1 (stereo partly drawn) — higher, > 100 µM
- c1ccc2cc(-c3cc(-c4cc(-c5ccc6ccccc6c5)on4)no3)ccc2c1 — higher, > 100 µM

These compounds were tested on SW-620 colon (assay: NCI anticancer screen, dose series, 48 h).

Point of comparison: `O=C1C(Cl)=C(Nc2cccc(Cl)c2)C(=O)N1Cc1ccc(Cl)cc1Cl`, TGI 18.9 µM. Against it:
- N#CC1C(C#N)C2(c3ccccc3)C(c3ccccc3)=NN(c3ccccc3)CC12 (stereo not drawn) — higher, > 100 µM
- COc1cc(Cc2cnc(/N=C3\C(=O)N(CN4CCN(c5c(F)cc6c(=O)c(C(=O)O)cn(C7CC7)c6c5OC)CC4C)c4ccc(F)cc43)nc2N)cc(OC)c1OC (stereo not drawn) — within 1.5-fold, 23.3 µM
- C=C(CN1CCN(c2ccc(Cl)cc2F)CC1)c1ccc(C(=O)Nc2ccccc2N)cc1 — higher, > 100 µM
- CC(C)=CC(=O)C1c2cccc(O)c2C(=O)c2c(O)cc(C)cc21 (stereo not drawn) — 1.9-fold lower, 10.2 µM
- O=C(Nc1ccccc1)NS(=O)(=O)c1ccc(-n2nc3c(c2-c2cccs2)Cc2ccccc2-3)cc1 — 2.7-fold higher, 51.2 µM
- CCCCOC(=O)C1OC(O[C@H]2CCC3(C)C(CCC4(C)C3CC=C3C5CC(C)(C)CCC5(C(=O)O)CC[C@]34C)C2(C)C)C(OC2OC(CO)C(O)C(O)C2O)C(OC2OC(CO)C(O)C(O)C2O)C1O (stereo partly drawn) — higher, > 100 µM
- O=C1C=C(Cl)C(=O)C(c2ccc(Cl)cc2)=C1 — 4.7-fold higher, 89.5 µM
- Cc1ccc2c(=O)cc(-c3ccc(F)cc3)[nH]c2n1 — higher, > 100 µM
- CCOc1ccc(NC(=O)C(=O)CC(=O)c2c[n+](=O)c3cc(C)c(C)cc3n2[O-])cc1 — higher, > 100 µM
- CN1C(=O)C(C)(C)C2(SC(C)(C)C2(C)C)N(C)C1=S (stereo not drawn) — higher, > 100 µM
- Cn1cc(C2=C(c3cn(C)c4ncccc34)C(=O)NC2=O)c2ccccc21 — higher, > 25 µM
- O=C(/C=C/C12c3ccccc3C(c3ccccc31)C1C(=O)NC(=O)C12)c1ccncc1 (stereo not drawn) — 2.4-fold lower, 7.95 µM
- CC1(C)CCc2c(c3c(c4c(=O)c(O)c(-c5ccc(O)cc5)oc24)OC(C)(C)CC3)O1 — higher, > 100 µM
- CC12CCC(O)CC1CCC1C2CCC2(C)C(C3=CC(=O)OC3)CCC12O (stereo not drawn) — higher, > 36.8 µM
- CN/N=C(/Cc1occc(=O)c1O)C(=O)Nc1ccccc1C — higher, > 100 µM
- Cc1coc2c1CC1(C)C(CCC(O)C1C)C2 (stereo not drawn) — higher, > 100 µM
- COc1ccc2c(c1)/C(=C/c1c(C)nc3sc(C)nn13)C(=O)N2 — higher, > 100 µM
- Cc1cc(I)cc(CN(C)CCCCN2CCCCC2)c1O — within 1.5-fold, 27.5 µM
- C#Cc1ccc(-n2c(/C=C/c3ccc(C(F)(F)F)cc3)nc3ncccc3c2=O)cc1 — 5-fold lower, 3.76 µM
- COc1cc(/C=N/NC(=O)c2ccc(C(F)(F)F)nc2Nc2ccc(Cl)cc2C)ccc1O — 1.6-fold lower, 12.1 µM
- COc1ccc(C(=O)Cn2c(C(=O)c3ccccc3)nc(-c3ccc(OC)cc3)c2-c2ccc(OC)cc2)cc1 — higher, > 100 µM
- O=C1c2ccccc2C2C1N2C(=O)C(F)(F)F (stereo not drawn) — higher, > 100 µM
- N#CCCN(CCC#N)c1ccc(/C=C2\N=C(c3cc([N+](=O)[O-])ccc3Cl)OC2=O)cc1 — higher, > 100 µM
- CSc1nc2c(c(=O)[nH]1)N=C1c3ccccc3C(=O)C1C(c1ccccc1)N2 (stereo not drawn) — higher, > 100 µM
- CC1=C(C(=O)Nc2ccc(Cl)c(Cl)c2)C(c2cccc(Oc3ccccc3)c2)NC(=S)N1 (stereo not drawn) — within 1.5-fold, 15 µM
- c1ccc2cc(-c3cc(-c4cc(-c5ccc6ccccc6c5)on4)no3)ccc2c1 — higher, > 100 µM

Point of comparison: `O=C1C(Cl)=C(Nc2cccc(Cl)c2)C(=O)N1Cc1ccc(Cl)cc1Cl`, GI50 0.115 µM. Against it:
- COc1cc(Cc2cnc(/N=C3\C(=O)N(CN4CCN(c5c(F)cc6c(=O)c(C(=O)O)cn(C7CC7)c6c5OC)CC4C)c4ccc(F)cc43)nc2N)cc(OC)c1OC (stereo not drawn) — 46-fold higher, 5.28 µM
- C=C(CN1CCN(c2ccc(Cl)cc2F)CC1)c1ccc(C(=O)Nc2ccccc2N)cc1 — 27-fold higher, 3.06 µM
- O=C(Nc1ccccc1)NS(=O)(=O)c1ccc(-n2nc3c(c2-c2cccs2)Cc2ccccc2-3)cc1 — 200-fold higher, 22.9 µM
- CCCCOC(=O)C1OC(O[C@H]2CCC3(C)C(CCC4(C)C3CC=C3C5CC(C)(C)CCC5(C(=O)O)CC[C@]34C)C2(C)C)C(OC2OC(CO)C(O)C(O)C2O)C(OC2OC(CO)C(O)C(O)C2O)C1O (stereo partly drawn) — 320-fold higher, 36.6 µM
- Cn1cc(C2=C(c3cn(C)c4ncccc34)C(=O)NC2=O)c2ccccc21 — 84-fold higher, 9.7 µM
- O=C(/C=C/C12c3ccccc3C(c3ccccc31)C1C(=O)NC(=O)C12)c1ccncc1 (stereo not drawn) — 21-fold higher, 2.47 µM
- CC1(C)CCc2c(c3c(c4c(=O)c(O)c(-c5ccc(O)cc5)oc24)OC(C)(C)CC3)O1 — higher, > 100 µM
- COc1ccc2c(c1)/C(=C/c1c(C)nc3sc(C)nn13)C(=O)N2 — 6-fold higher, 0.695 µM
- Cc1cc(I)cc(CN(C)CCCCN2CCCCC2)c1O — 120-fold higher, 13.3 µM
- C#Cc1ccc(-n2c(/C=C/c3ccc(C(F)(F)F)cc3)nc3ncccc3c2=O)cc1 — 17-fold higher, 1.92 µM
- COc1cc(/C=N/NC(=O)c2ccc(C(F)(F)F)nc2Nc2ccc(Cl)cc2C)ccc1O — 24-fold higher, 2.77 µM
- COc1ccc(C(=O)Cn2c(C(=O)c3ccccc3)nc(-c3ccc(OC)cc3)c2-c2ccc(OC)cc2)cc1 — higher, > 100 µM
- CSc1nc2c(c(=O)[nH]1)N=C1c3ccccc3C(=O)C1C(c1ccccc1)N2 (stereo not drawn) — 25-fold higher, 2.92 µM
- CC1=C(C(=O)Nc2ccc(Cl)c(Cl)c2)C(c2cccc(Oc3ccccc3)c2)NC(=S)N1 (stereo not drawn) — 72-fold higher, 8.23 µM

`O=C(Nc1ccc(Cl)c(Cl)c1)Nc1ccc(Cl)c(Cl)c1` was tested, and the GI50 was 3.36 µM and 3.12 µM.
With `CCOC(=O)[C@]1(OC(C)=O)C[C@H](OC(C)=O)[C@@H](C(F)COP(=O)(OCc2ccccc2)OCc2ccccc2)O1` (stereo partly drawn) the GI50 was 20.2 µM and > 100 µM.

In the case of `O=C(Nc1ccc(Cl)c(Cl)c1)Nc1ccc(Cl)c(Cl)c1`, the TGI is reported as 14.4 µM and 11.7 µM.
`CCOC(=O)[C@]1(OC(C)=O)C[C@H](OC(C)=O)[C@@H](C(F)COP(=O)(OCc2ccccc2)OCc2ccccc2)O1` (stereo partly drawn) was tested, and the TGI was 42.8 µM and > 100 µM.
